Laboratory results reported in patent US20050054589A1, “Method for treating diseases using HSP90-inhibiting agents in combination with antibiotics” (Kosan Biosciences, Inc., priority 2003, published 2005).

What was measured:
[1] = clinical trials; twice-weekly regimen; cited from earlier work
[2] = system: SKBr cells (human breast cancer cells); assay: Cell viability (MTS) drug combination assay, combination index, SKBr-3 cells; assay type: cell-based; details: constant ratio of IC50s, CI<1 synergism
Procedure: (§1) Human colon adenocarcinoma cell line, DLD-1, and human breast adenocarcinoma cell line, SKBr-3, were obtained from American Type Culture Collection (manassas, VA). DLD-1 cells were maintained in RPMI 1640 medium supplemented with 10% fetal bovine serum, and SKBr-3 cells were cultured in McCoy's 5a medium supplemented with 10% fetal bovine serum. 17-DMAG and 17-AAG were obtained using published procedures. Other cytotoxic agents were purchased commercially from suppliers such as Sigma Chemical Co. (St. Louis, Mo.) and Sequoia Research Products (Oxford, UK).
(§2) Cells were seeded in duplicate in 96-well microtiter plates at a density of 5,000 cells per well and allowed to attach overnight. […] Cell viability was determined using the MTS assay (Promega). For the drug combination assay, cells were seeded in duplicate in 96-well plates (5,000 cells/well). […] Cell viability was determined by the MTS assay.
(§3) Synergism, additivity or antagonism was determined by median effect analysis using the combination index (CI) calculated using Calcusyn (Biosoft, Cambridge, UK). […] The quantities [Dx]1 and [Dx]2 represent the concentrations of the first and second drug, respectively, that when used alone provide a response of x % in the assay. […] The “enhancing” effect of two drugs can also be determined.

[3] = system: DLD-1 cells (human colorectal cancer cells); details: constant ratio of IC50s, CI<1 synergism, CI=1 additivity, CI>1 antagonism
Procedure: as §1, §2, §3

[4] = 17-AAG 24 h before antibiotic, then 48 h
[5] = antibiotic alone 24 h, then 17-AAG for 48 h

Row | SMILES | MTD [1] | CI value, combination with 17-AAG, 17-AAG Pre-Administration [2, 4] | CI value, combination with 17-AAG, 17-AAG Post-Administration [2, 5] | CI value, combination with 17-AAG, 17-AAG Pre-Administration [3, 4] | CI value, combination with 17-AAG, 17-AAG Post-Administration [3, 5]
1 | C=CCNC1=C2C[C@@H](C)C[C@H](OC)[C@H](O)[C@@H](C)/C=C(\C)[C@H](OC(N)=O)[C@@H](OC)/C=C\C=C(/C)C(=O)NC(=CC1=O)C2=O [17-AAG, 17-(allylamino)-17-desmethoxygeldanamycin] | about 220 mg/m2 |  |  |  | 
2 | COc1cccc2c1C(=O)c1c(O)c3c(c(O)c1C2=O)C[C@@](O)(C(=O)CO)C[C@@H]3O[C@H]1C[C@H](N)[C@H](O)[C@H](C)O1 [Doxorubicin, doxorubicin] |  | 0.81 ± 0.05 | 0.45 ± 0.12 | 0.58 ± 0.15 | 0.82 ± 0.09
